Entries after “also recorded” stand apart in the source; their conditions may differ.
Key:
[1] = test system: high-fat diet SD rats; test: Subcutaneous, perirenal and retroperitoneal fat weight in high-fat diet rats; type: in vivo, rat; details: orally administered for 6 weeks, FIG. 7
Description: As described above, 4 week-old SD rats were treated with high-fat diet and 3′-SL for 6 weeks. Then, subcutaneous fat, perirenal fat and retroperitoneal fat were isolated from the rats and weighed.

[2] = test system: high-fat diet C56BL/6 male mice; test: Improvement of fatty liver in high-fat diet mice (dissection, observation); type: in vivo, mouse; details: peritoneally administered, FIG. 4
Text: In order to investigate 3′-SL's effect of improving fatty liver, high-fat diet C56BL/6 male mice were dissected and the liver and other organs were observed.

[3] = test system: high-fat diet SD rats; test: Serum lipid levels in high-fat diet rats; type: in vivo, rat; details: HD + SL 1 mg/kg
Description: (§1) Blood was taken from the liver of the C56BL/6 male mice. The blood was coagulated, centrifuged for 15 minutes at 13,000 rpm, and kept at −20° C. until serum analysis. High-density lipoprotein (HDL)-cholesterol level was measured using an HDL kit (YD Diagnostics, Korea). Triglyceride (TG) was analyzed using a TG kit (YD Diagnostics) based on enzymologic method. Total cholesterol was analyzed using a cholesterol E kit (YD Diagnostics). Low-density lipoprotein (LDL)-cholesterol level was calculated from triglyceride level, total cholesterol level and HDL-cholesterol level according to Equation 1: LDL-cholesterol=total cholesterol−{[…]} Equation 1
Blood was taken from the liver of the SD rats, and lipid levels were analyzed in the same manner as the experiment with the C57BL/6 male mice.

[4] = test system: high-fat diet C56BL/6 male mice; test: Body weight change and food intake of high-fat diet mice; type: in vivo, mouse; details: for Weight increase / Final weight: peritoneal injection every day; for Comparison of body weight increase, SL vs. ND: compared to normal diet mice
Description: 4 week-old C56BL/6 male mice were purchased from Dooyeul Biotech (Korea). Water was allowed freely and commercially available pellet feed (Dooyeul Biotech, Korea) was given for a week. The mice were grouped into six groups (six per each group) as follows: ND, normal diet group (normal group); HD, high-fat (60% fat) diet [purchased from Research Diets (New Brunswick, USA)] group (control group); and HD+SL (0.1 mg/kg), HD+SL (0.5 mg/kg), HD+SL (1.0 mg/kg) and HD+SL (5.0 mg/kg), high-fat diet groups treated with sialyllactose (SL, Sigma). Sialyllactose or PBS was administered every day by peritoneal injection. The mice were kept in cages for 50 days and sacrificed after fasting for 12 hours. Food intake and body weight change were measured every 7 days. 3′-Sialyllactose (3′-N-acetylneuraminyl-D-lactose, 3′-sialyl-D-lactose or α-NeuNAc-(2→3)-β-D-Gal-(1→4)-D-Glc) and 6′-sialyllactose (6′-N-acetylneuraminyl-lactose, 6′-sialyl-D-lactose or α-NeuNAc-(2→6)-β-D-Gal-(1→4)-D-Glc) were purchased from Sigma-Aldrich.

[5] = test system: high-fat diet SD rats; test: Body weight change, food and water intake of high-fat diet rats; type: in vivo, rat; details: orally administered every day, 7 weeks
Description: 4 week-old Sprague-Dawley (SD) rats were purchased from Dooyeul Biotech (Korea). Water was allowed freely and commercially available pellet feed (Dooyeul Biotech, Korea) was given for a week. The rats were grouped into four groups (six per each group) as follows: ND, normal diet group (normal group); HD, high-fat (60% fat) diet [purchased from Research Diets (New Brunswick, USA)] group (control group); and HD+SL (1 mg/kg) and HD+SL (5 mg/kg), high-fat diet groups treated with SL (Sigma). 3′-SL or deionized water (DW) was orally administered every day. The mice were kept in cages for 7 weeks and sacrificed after fasting for 12 hours. Food intake and body weight change were measured every 5 days.

[6] = test system: high-fat diet C56BL/6 male mice; test: Serum lipid and leptin levels in high-fat diet mice; type: in vivo, mouse; details: for Leptin / HDL-cholesterol / HDL/TC / LDL/TC / Total cholesterol (TC) / Triglyceride / LDL-cholesterol: peritoneal injection every day, 50 days; for Leptin: ELISA; for HDL-cholesterol / HDL/TC / LDL/TC / Total cholesterol (TC) / Triglyceride / LDL-cholesterol: serum; for LDL-cholesterol: calculated by Equation 1
Description: as §1
Leptin level was measured using a mouse leptin ELISA kit (Millipore) and a rat leptin ELISA kit (Millipore).

[7] = test system: high-fat diet SD rats; test: Improvement of fatty liver in high-fat diet rats (dissection, observation); type: in vivo, rat; details: orally administered, FIGS. 8a and 8b
Text: In order to investigate 3′-SL's effect of improving fatty liver, high-fat diet SD rats were dissected and the liver and other organs were observed.

[8] = high-fat diet + SL 5 mg/kg peritoneally injected, 50 days

## CC(=O)N[C@H]1[C@H]([C@H](O)[C@H](O)CO)O[C@@](O[C@H]2[C@@H](O)[C@@H](CO)O[C@@H](O[C@H]3[C@H](O)[C@@H](O)C(O)O[C@@H]3CO)[C@@H]2O)(C(=O)O)C[C@@H]1O (stereo partly drawn) [3′-SL, α-NeuNAc-(2→3)-β-D-Gal-(1→4)-D-Glc]
[1]
  subcutaneous, perirenal and retroperitoneal fat weight (in words): decreased subcutaneous fat, perirenal fat and retroperitoneal fat in a dose-dependent manner
[2]
  fatty liver, fat accumulation in liver and other organs (in words): fat accumulation was not observed in the liver or other organs
[3]; compared to the control group
  effect on serum lipid levels (in words): higher HDL-cholesterol level and lower LDL-cholesterol, total cholesterol and triglyceride levels as compared to the control group
[3]; oral, serum
  HDL-cholesterol: 88.73 ± 1.32
  HDL/total cholesterol: 0.52 ± 0.04
  LDL/total cholesterol: 0.34 ± 0.03
  Total cholesterol: 171.44 ± 12.8
  Triglyceride: 149.00 ± 3.86
[3]; oral, serum, calculated by Equation 1
  LDL-cholesterol: 57.91 ± 1.39
[4]; HD + SL 0.1 mg/kg
  Weight increase: 8.94 ± 0.43 g/50 day
[4]; HD + SL 0.1 mg/kg, 50 days
  Final weight: 31.34 ± 1.15 g
[4]; HD + SL 0.5 mg/kg
  Weight increase: 7.52 ± 0.74 g/50 day
[4]; HD + SL 0.5 mg/kg, 50 days
  Final weight: 30.42 ± 0.51 g
[4]; HD + SL 1.0 mg/kg
  Weight increase: 5.60 ± 0.77 g/50 day
[4]; HD + SL 1.0 mg/kg, 50 days
  Final weight: 29.00 ± 0.82 g
[4]; HD + SL 5.0 mg/kg
  Weight increase: 6.68 ± 0.28 g/50 day
[4]; HD + SL 5.0 mg/kg, 50 days
  Final weight: 28.68 ± 0.95 g
[4]; [8]
  Comparison of body weight increase, SL vs. ND: 51.5%
[5]; HD + SL 1.0 mg/kg
  Final weight: 454.17 ± 10.37 g
  Weight increase: 4.05 ± 0.16 g/day
[5]; HD + SL 5.0 mg/kg
  Final weight: 443.33 ± 19.56 g
  Weight increase: 3.66 ± 0.32 g/day
[6]; HD + SL 0.1 mg/kg
  Leptin: 66.59 ± 43.57 ng/mL
  HDL-cholesterol: 53.27 ± 5.08 mg/dL
  HDL/TC: 0.40 ± 0.04
  LDL/TC: 0.43 ± 0.02
  Total cholesterol (TC): 135.05 ± 13.58 mg/dL
  Triglyceride: 166.78 ± 6.60 mg/dL
  LDL-cholesterol: 58.16 ± 3.74 mg/dL
[6]; HD + SL 0.5 mg/kg
  Leptin: 38.73 ± 5.58 ng/mL
  HDL-cholesterol: 55.74 ± 3.18 mg/dL
  HDL/TC: 0.51 ± 0.02
  LDL/TC: 0.45 ± 0.12
  Total cholesterol (TC): 108.25 ± 3.06 mg/dL
  Triglyceride: 112.99 ± 8.16 mg/dL
  LDL-cholesterol: 48.43 ± 13.91 mg/dL
[6]; HD + SL 1.0 mg/kg
  Leptin: 19.29 ± 14.24 ng/mL
  HDL-cholesterol: 49.29 ± 3.40 mg/dL
  HDL/TC: 0.39 ± 0.01
  LDL/TC: 0.37 ± 0.12
  Total cholesterol (TC): 126.30 ± 7.75 mg/dL
  Triglyceride: 94.28 ± 5.66 mg/dL
  LDL-cholesterol: 46.03 ± 13.79 mg/dL
[6]; HD + SL 5.0 mg/kg
  Leptin: 6.64 ± 2.93 ng/mL
  HDL-cholesterol: 48.97 ± 1.62 mg/dL
  HDL/TC: 0.44 ± 0.05
  LDL/TC: 0.27 ± 0.04
  Total cholesterol (TC): 112.97 ± 12.54 mg/dL
  Triglyceride: 89.78 ± 4.31 mg/dL
  LDL-cholesterol: 29.91 ± 2.69 mg/dL
[7]
  fatty liver, fat accumulation in liver and other organs (in words): fat accumulation reduced markedly

## CC(=O)N[C@H]1[C@H]([C@H](O)[C@H](O)CO)O[C@@](OC[C@H]2O[C@@H](O[C@H]3[C@H](O)[C@@H](O)[C@H](O)O[C@@H]3CO)[C@H](O)[C@@H](O)[C@H]2O)(C(=O)O)C[C@@H]1O [6′-SL, α-NeuNAc-(2→6)-β-D-Gal-(1→4)-D-Glc]
[4]; HD + SL 0.1 mg/kg
  Weight increase: 7.82 ± 1.44(*) g/50 day
[4]; HD + SL 0.1 mg/kg, 50 days
  Final weight: 26.82 ± 0.92 g
[4]; HD + SL 0.5 mg/kg
  Weight increase: 7.68 ± 2.82(*) g/50 day
[4]; HD + SL 0.5 mg/kg, 50 days
  Final weight: 25.74 ± 1.93 g
[4]; HD + SL 1.0 mg/kg
  Weight increase: 7.99 ± 1.15(*) g/50 day
[4]; HD + SL 1.0 mg/kg, 50 days
  Final weight: 25.62 ± 1.33 g
[4]; HD + SL 5.0 mg/kg
  Weight increase: 6.88 ± 1.80(*) g/50 day
[4]; HD + SL 5.0 mg/kg, 50 days
  Final weight: 25.92 ± 0.95 g
[4]; [8]
  body weight decrease compared to normal diet mice: 4.7%
  Comparison of body weight increase, SL vs. ND: −4.7%
[4]; high-fat diet mice, peritoneal injection, 50 days
  effect on body weight increase (in words): significant decrease in body weight increase; also recorded: more effective in body weight loss than 3′-SL; also recorded: less body weight increase than the normal diet mice
[6]; HD + SL 0.1 mg/kg
  Leptin: 11.50 ± 3.72 ng/mL
  HDL-cholesterol: 70.71 ± 14.15 mg/dL
  HDL/TC: 0.55 ± 0.08(*)
  LDL/TC: 0.33 ± 0.07(*)
  Total cholesterol (TC): 126.68 ± 10.7 mg/dL
  Triglyceride: 74.48 ± 3.77 mg/dL
  LDL-cholesterol: 41.07 ± 6.34 mg/dL
[6]; HD + SL 0.5 mg/kg
  Leptin: 6.71 ± 0.93 ng/mL
  HDL-cholesterol: 76.33 ± 10.53 mg/dL
  HDL/TC: 0.58 ± 0.05(*)
  LDL/TC: 0.31 ± 0.05(*)
  Total cholesterol (TC): 130.54 ± 8.10 mg/dL
  Triglyceride: 71.05 ± 5.88 mg/dL
  LDL-cholesterol: 40.00 ± 4.25 mg/dL
[6]; HD + SL 1.0 mg/kg
  Leptin: 5.15 ± 1.61 ng/mL
  HDL-cholesterol: 57.44 ± 0.87 mg/dL
  HDL/TC: 0.53 ± 0.03(*)
  LDL/TC: 0.36 ± 0.02(*)
  Total cholesterol (TC): 109.14 ± 9.86 mg/dL
  Triglyceride: 60.69 ± 7.69 mg/dL
  LDL-cholesterol: 39.56 ± 8.53 mg/dL
[6]; HD + SL 5.0 mg/kg
  Leptin: 6.47 ± 1.64 ng/mL
  HDL-cholesterol: 62.73 ± 8.58 mg/dL
  HDL/TC: 0.54 ± 0.05(*)
  LDL/TC: 0.35 ± 0.10(*)
  Total cholesterol (TC): 115.36 ± 14.9 mg/dL
  Triglyceride: 61.34 ± 3.84 mg/dL
  LDL-cholesterol: 40.36 ± 2.69 mg/dL
[6]; high-fat diet mice, compared to the high-fat diet group
  effect on LDL-cholesterol, total cholesterol, triglyceride and leptin levels (in words): much better effect of reducing LDL-cholesterol, total cholesterol, triglyceride and leptin levels than 3′-SL
